Data reported in patent US10131642B1, “Aldosterone synthase inhibitors” (Boehringer Ingelheim International GmbH, priority 2015, dated 2018).
Counter-ions that a name gives are not always drawn. Like-named read-outs stand apart in the source and are kept apart here.

Legend:
[1] = target: T1, aldosterone synthase (CYP11B2) (Macaca fascicularis, UniProt A0A2K5UPL9); test: Inhibition of aldosterone synthase (cynomolgus adrenal mitochondria, aldosterone by mass spectrometry); format: biochemical, cynomolgus monkey; conditions: cynomolgus adrenal gland mitochondria, 2 μM corticosterone substrate, 90 minutes at 37° C.
T1 construct: cynomolgus adrenal gland mitochondria as the source of aldosterone synthase (CYP11B2); from tissue; host or cells: cynomolgus monkey adrenal gland mitochondria
T1 sequence (A0A2K5UPL9 1-503): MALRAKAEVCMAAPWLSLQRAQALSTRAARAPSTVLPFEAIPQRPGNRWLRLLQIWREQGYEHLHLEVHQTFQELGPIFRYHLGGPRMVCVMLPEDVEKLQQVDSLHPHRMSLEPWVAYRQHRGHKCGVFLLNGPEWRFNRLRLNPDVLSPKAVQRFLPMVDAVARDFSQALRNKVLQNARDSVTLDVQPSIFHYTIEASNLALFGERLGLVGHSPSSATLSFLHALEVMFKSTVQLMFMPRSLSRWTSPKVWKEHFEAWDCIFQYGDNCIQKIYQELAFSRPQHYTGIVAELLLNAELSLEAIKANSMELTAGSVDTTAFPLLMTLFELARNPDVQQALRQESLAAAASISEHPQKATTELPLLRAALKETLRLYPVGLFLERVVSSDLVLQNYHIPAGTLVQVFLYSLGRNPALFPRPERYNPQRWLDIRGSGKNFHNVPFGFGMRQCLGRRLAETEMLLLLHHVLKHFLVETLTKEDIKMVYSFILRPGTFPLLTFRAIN
Method: (§1) The aldosterone synthase and cortisol synthase inhibition assays employ cynomolgus adrenal gland mitochondria as the source of aldosterone synthase (CYP11B2) and cortisol synthase (CYP11B1). Mitochondria are prepared from frozen cynomolgus monkey adrenal glands according to Method A described in by J. D. McGarry et al. (Biochem. J., 1983, 214, 21-28), with a final resuspension in the AT buffer described in R. Yamaguchi et al. (Cell Death and Differentiation, 2007, 14, 616-624), frozen as aliquots in liquid nitrogen and stored at −80° C. until use. Activity of CYP11B2 and CYP11B1 in these preparations is defined as the amount of enzyme that generates 1 pmol of product in one hour under the conditions described.
Assays are performed in 96-well format in a final volume of 60 µL/well, containing 100 mM potassium phosphate, pH 7.4, 1% (v/v) DMSO, and additionally, 2 μM of corticosterone and 50 units of CYP11B2 activity. Reactions are started by the addition of NADPH to 1 mM and allowed to proceed for 90 minutes at 37° C. Reactions are terminated by the addition of 60 μL of MeCN containing an internal standard for mass spectrometry. One hundred microliters are then transferred to a glass filter plate and centrifuged at 570×g for 5 minutes and the filtrate is collected. Reaction product aldosterone is quantified by mass spectrometry. To determine the assay blank value (0% activity), NADPH is omitted from some reactions.
Dose dependent inhibition is quantified by the inclusion of compound at various concentrations. Maximum activity (100%) is defined by reactions containing NADPH, but without compound. Activities at each concentration are expressed as a percentage of the maximum activity (y-axis) and plotted against concentration of compound (x-axis) and the concentration corresponding to 50% activity (IC50) determined using the XLFit curve-fitting program using a 4-parameter logistic model.

[2] = target: cortisol synthase (CYP11B1) (Macaca fascicularis, UniProt A0A2K5ULY1); test: Inhibition of cortisol synthesis (cynomolgus adrenal mitochondria, cortisol by mass spectrometry); format: biochemical, cynomolgus monkey
Method: as §1, with “described. Dose dependent inhibition is quantified by the inclusion of compound at various concentrations. Maximum activity (100%) is defined by reactions containing NADPH, but without compound. Activities at each concentration are expressed as a percentage of the maximum activity (y-axis) and plotted against concentration of compound (x-axis) and the concentration corresponding to 50% activity (IC50) determined using the XLFit curve-fitting program using a 4-parameter logistic model. Assays are performed as for aldosterone synthase except for the use of 150 units of CYP11B1, 11-deoxycortisol as substrate and cortisol measured as product.” for “described.”

[3] = cynomolgus adrenal gland mitochondria, 11-deoxycortisol as substrate, cortisol measured as product; read-out: CYP11B1 Inhibition IC50

| IC50 [1] | IC50 [2, 3] | SMILES | IC50 ([2]; read-out: CYP11B1 Inhibition IC50; cynomolgus adrenal gland mitochondria, 11-deoxycortisol as substrate, cortisol measured as product) |
| --- | --- | --- | --- |
| 230 nM | 8300 nM | CC(C)C1CC(=O)c2c(noc2Cc2ccc(C#N)cc2)C1 (single isomer, unassigned) [Cpd 39A, 4-(-6-Isopropyl-4-oxo-4,5,6,7-tetrahydro-benzo[c]isoxazol-3-ylmethyl)-benzonitrile] |  |
| 120 nM | 3400 nM | CC(C)C1CC(=O)c2c(noc2Cc2ccc(C#N)cc2)C1 (single isomer, unassigned) [Cpd 39B, 4-(-6-Isopropyl-4-oxo-4,5,6,7-tetrahydro-benzo[c]isoxazol-3-ylmethyl)-benzonitrile] |  |
| 7.2 nM | 1100 nM | O=C1CC2(CCC2)Cc2noc(Cc3ccccc3)c21 [Cpd 1, 6,6-spiro-cyclobutyl-3-benzyl-6,7-dihydro-5-H-benzo[c]isoxazole-4-one] |  |
| 11 nM | 5000 nM | O=C1CC(CC2CC2)Cc2noc(Cc3ccccc3)c21 (stereo not drawn) [Cpd 2, 3-Benzyl-6-cyclopropylmethyl-6,7-dihydro-5H-benzo[c]isoxazol-4-one] |  |
| 17 nM | 590 nM | CC1(C)CC(=O)c2c(noc2Cc2ccc3c(c2)OCCO3)C1 [Cpd 3, 3-(2,3-Dihydro-benzo[1,4]dioxin-6-ylmethyl)-6,6-dimethyl-6,7-dihydro-5H-benzo[c]isoxazol-4-one] |  |
| 78 nM | > 100000 nM | COc1ccc(Cc2onc3c2C(=O)CC(C2CCOCC2)C3)cc1 (stereo not drawn) [Cpd 8, 3-(4-Methoxy-benzyl)-6-(tetrahydro-pyran-4-yl)-6,7-dihydro-5H-benzo[c]isoxazol-4-one] |  |
| 84 nM | 3700 nM | CC1(C)CC(=O)c2c(noc2Cc2ccc(S(C)(=O)=O)cc2)C1 [Cpd 9, 3-(4-Methanesulfonyl-benzyl)-6,6-dimethyl-6,7-dihydro-5H-benzo[c]isoxazol-4-one] |  |
| 110 nM | 7700 nM | COc1ccc(Cc2onc3c2C(=O)CC(C)(C)C3)cn1 [Cpd 10, 3-(6-Methoxy-pyridin-3-ylmethyl)-6,6-dimethyl-6,7-dihydro-5H-benzo[c]isoxazol-4-one] |  |
| 140 nM | 9300 nM | CC1(C)CC(=O)c2c(noc2Cc2cccc(C#N)c2)C1 [Cpd 11, 3-(6,6-Dimethyl-4-oxo-4,5,6,7-tetrahydro-benzo[c]isoxazol-3-ylmethyl)-benzonitrile] |  |
| 180 nM | 51000 nM | N#Cc1ccc(Cc2onc3c2C(=O)CC(C2CCOCC2)C3)cc1 (stereo not drawn) [Cpd 12, 4-[4-Oxo-6-(tetrahydro-pyran-4-yl)-4,5,6,7-tetrahydro-benzo[c]isoxazol-3-ylmethyl]-benzonitrile] |  |
| 190 nM | 22000 nM | CC1(C)CC(=O)c2c(noc2Cc2ccc(F)cc2)C1 [Cpd 13, 3-(4-Fluoro-benzyl)-6,6-dimethyl-6,7-dihydro-5H-benzo[c]isoxazol-4-one] |  |
| 690 nM | 24000 nM | CC(=O)N1CCC(Cc2onc3c2C(=O)CC(C)(C)C3)CC1 [Cpd 17, 3-(1-Acetyl-piperidin-4-ylmethyl)-6,6-dimethyl-6,7-dihydro-5H-benzo[c]isoxazol-4-one] |  |
| 69 nM | 74000 nM | CC1(C)CC(=O)c2c(noc2Cc2ccc(C#N)cc2)C1 [Cpd 23, 4-(6,6-Dimethyl-4-oxo-4,5,6,7-tetrahydro-benzo[c]isoxazol-3-ylmethyl)-benzonitrile] |  |
| 17 nM | 1300 nM | CS(=O)(=O)CCCOc1ccc(Cc2onc3c2C(=O)CC(CC2CC2)C3)cc1 (stereo not drawn) [Cpd 24, 6-Cyclopropylmethyl-3-[4-(3-methanesulfonyl-propoxy)-benzyl]-6,7-dihydro-5H-benzo[c]isoxazol-4-one] |  |
| 29 nM | 2800 nM | CC1(C)CC(=O)c2c(noc2Cc2ccc(I)cc2)C1 [Cpd 25, 3-(4-Iodo-benzyl)-6,6-dimethyl-6,7-dihydro-5H-benzo[c]isoxazol-4-one] |  |

Further lines, the compound ahead of its results:

| SMILES | IC50 [1] | IC50 [2, 3] | IC50 ([2]; read-out: CYP11B1 Inhibition IC50; cynomolgus adrenal gland mitochondria, 11-deoxycortisol as substrate, cortisol measured as product) |
| --- | --- | --- | --- |
| CC(=O)N1CCC(Cc2onc3c2C(=O)CC(C(C)C)C3)CC1 (single isomer, unassigned) [Cpd 15A, 3-(1-Acetyl-piperidin-4-ylmethyl)-6-isopropyl-6,7-dihydro-5H-benzo[c]isoxazol-4-one] | 22 nM | 2800 nM |  |
| CC(=O)N1CCC(Cc2onc3c2C(=O)CC(C(C)C)C3)CC1 (single isomer, unassigned) [Cpd 15B, 3-(1-Acetyl-piperidin-4-ylmethyl)-6-isopropyl-6,7-dihydro-5H-benzo[c]isoxazol-4-one] | 110 nM | 18000 nM |  |
| CC(C)C1CC(=O)c2c(noc2CC2CC2)C1 (stereo not drawn) [Cpd 6, 3-Cyclopropylmethyl-6-isopropyl-6,7-dihydro-5H-benzo[c]isoxazol-4-one] | 27 nM | 21000 nM |  |
| CC(C)C1CC(=O)c2c(noc2CC2CCOCC2)C1 (stereo not drawn) [Cpd 7, 6-Isopropyl-3-(tetrahydro-pyran-4-ylmethyl)-6,7-dihydro-5H-benzo[c]isoxazol-4-one] | 33 nM | 20000 nM |  |
| CC(C)C1CC(=O)c2c(noc2CC2CCNCC2)C1 (stereo not drawn) [Cpd 14, 4-(6-Isopropyl-4-oxo-4,5,6,7-tetrahydro-benzo[c]isoxazol-3-ylmethyl)-piperidinium hydrochloride] | 2400 nM |  | > 30000 nM |
| CC(=O)N1CCC(Cc2onc3c2C(=O)CC2(CCC2)C3)CC1 [Cpd 16, 3-(1-Acetyl-piperidin-4-ylmethyl)-6,6-spiro-cyclobutyl-6,7-dihydro-5H-benzo[c]isoxazol-4-one] | 47 nM | 3900 nM |  |
| COCC(=O)N1CCC(Cc2onc3c2C(=O)CC(C(C)C)C3)CC1 (stereo not drawn) [Cpd 18, 6-Isopropyl-3-[1-(2-methoxy-acetyl)-piperidin-4-ylmethyl]-6,7-dihydro-5H-benzo[c]isoxazol-4-one] | 89 nM | 2800 nM |  |
| CC(C)C1CC(=O)c2c(noc2CC2CCN(C(=O)CO)CC2)C1 (stereo not drawn) [Cpd 19, 3-[1-(2-Hydroxy-acetyl)-piperidin-4-ylmethyl]-6-isopropyl-6,7-dihydro-5H-benzo[c]isoxazol-4-one] | 200 nM | 9900 nM |  |
| CC(C)C1CC(=O)c2c(noc2CC2CCN(C(=O)CS(C)(=O)=O)CC2)C1 (stereo not drawn) [Cpd 20, 6-Isopropyl-3-[1-(2-methanesulfonyl-acetyl)-piperidin-4-ylmethyl]-6,7-dihydro-5H-benzo[c]isoxazol-4-one] | 410 nM | 14000 nM |  |
| CC(C)C1CC(=O)c2c(noc2CC2CCN(C(N)=O)CC2)C1 (stereo not drawn) [Cpd 21, 4-(6-Isopropyl-4-oxo-4,5,6,7-tetrahydro-benzo[c]isoxazol-3-ylmethyl)-piperidine-l-carboxylic acid amide] | 330 nM | 23000 nM |  |
| NC(=O)N1CCC(Cc2onc3c2C(=O)CC2(CCC2)C3)CC1 [Cpd 22, 4-(6,6-spiro-cyclobutyll-4-oxo-4,5,6,7-tetrahydro-benzo[c]isoxazol-3-ylmethyl)-piperidine-l-carboxylic acid amide] | 57 nM | 3500 nM |  |
| O=C1CC(Cc2ccccc2)Cc2noc(Cc3ccccc3)c21 (stereo not drawn) [Cpd 26, 3,6-Dibenzyl-6,7-dihydro-5H-benzo[c]isoxazol-4-one] | 49 nM | 2300 nM |  |
